Paper PMC4685510, “A Cell Biologist’s Field Guide to Aurora Kinase Inhibitors” (Frontiers in Oncology, 2015)

Tests used:
Assay in all cases: biochemical
Format in all cases: biochemical
[1] = target: T1, 363 human kinases (including Aurora A/B/C) (Homo sapiens, UniProt Q9HBY8); settings: SGK2; for remaining activity at 0.1 µM: 100 nM; for remaining activity at 0.1 µM / remaining activity at 0.5 µM: read-out: % Enzyme Activity (relative to DMSO controls)
T1 sequence (Q9HBY8 1-367): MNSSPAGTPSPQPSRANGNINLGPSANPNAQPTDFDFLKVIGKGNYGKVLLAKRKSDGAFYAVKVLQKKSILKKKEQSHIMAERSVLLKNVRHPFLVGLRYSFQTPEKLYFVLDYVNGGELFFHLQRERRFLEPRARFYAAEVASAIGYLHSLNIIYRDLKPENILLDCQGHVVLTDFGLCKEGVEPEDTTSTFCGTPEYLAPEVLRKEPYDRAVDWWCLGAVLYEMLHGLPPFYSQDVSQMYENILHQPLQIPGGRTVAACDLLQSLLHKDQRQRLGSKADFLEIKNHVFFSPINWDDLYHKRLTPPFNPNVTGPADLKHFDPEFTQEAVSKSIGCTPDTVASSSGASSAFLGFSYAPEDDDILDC
Description: (§1) However, the Aurora A/B selectivity ratios derived from our in vitro and in vivo data can be compared to prioritize inhibitors.

[2] = target: 363 human kinases (including Aurora A/B/C) (Homo sapiens, UniProt P31749); settings: AKT1, [ATP] 100 µM; for remaining activity at 0.1 µM: 100 nM; for remaining activity at 0.1 µM / remaining activity at 0.5 µM: read-out: % Enzyme Activity (relative to DMSO controls)
Description: as §1

[3] = target: 363 human kinases (including Aurora A/B/C) (Homo sapiens, UniProt Q9UIK4); settings: DAPK2, [ATP] 5 µM; for remaining activity at 0.1 µM: 100 nM; for remaining activity at 0.1 µM / remaining activity at 0.5 µM: read-out: % Enzyme Activity (relative to DMSO controls)
Description: as §1

[4] = target: 363 human kinases (including Aurora A/B/C) (Homo sapiens, UniProt P12931); settings: c-Src, [ATP] 100 µM; for remaining activity at 0.1 µM: 100 nM; for remaining activity at 0.1 µM / remaining activity at 0.5 µM: read-out: % Enzyme Activity (relative to DMSO controls)
Description: as §1

[5] = target: 363 human kinases (including Aurora A/B/C) (Homo sapiens, UniProt Q9H2G2); settings: SLK/STK2; for remaining activity at 0.1 µM: 100 nM; for remaining activity at 0.1 µM / remaining activity at 0.5 µM: read-out: % Enzyme Activity (relative to DMSO controls)
Description: as §1

[6] = target: T2, 363 human kinases (including Aurora A/B/C) (Homo sapiens, UniProt O60285); settings: ARK5/NUAK1, [ATP] 30 µM; for remaining activity at 0.1 µM: 100 nM; for remaining activity at 0.1 µM / remaining activity at 0.5 µM: read-out: % Enzyme Activity (relative to DMSO controls)
T2 sequence (O60285 1-661): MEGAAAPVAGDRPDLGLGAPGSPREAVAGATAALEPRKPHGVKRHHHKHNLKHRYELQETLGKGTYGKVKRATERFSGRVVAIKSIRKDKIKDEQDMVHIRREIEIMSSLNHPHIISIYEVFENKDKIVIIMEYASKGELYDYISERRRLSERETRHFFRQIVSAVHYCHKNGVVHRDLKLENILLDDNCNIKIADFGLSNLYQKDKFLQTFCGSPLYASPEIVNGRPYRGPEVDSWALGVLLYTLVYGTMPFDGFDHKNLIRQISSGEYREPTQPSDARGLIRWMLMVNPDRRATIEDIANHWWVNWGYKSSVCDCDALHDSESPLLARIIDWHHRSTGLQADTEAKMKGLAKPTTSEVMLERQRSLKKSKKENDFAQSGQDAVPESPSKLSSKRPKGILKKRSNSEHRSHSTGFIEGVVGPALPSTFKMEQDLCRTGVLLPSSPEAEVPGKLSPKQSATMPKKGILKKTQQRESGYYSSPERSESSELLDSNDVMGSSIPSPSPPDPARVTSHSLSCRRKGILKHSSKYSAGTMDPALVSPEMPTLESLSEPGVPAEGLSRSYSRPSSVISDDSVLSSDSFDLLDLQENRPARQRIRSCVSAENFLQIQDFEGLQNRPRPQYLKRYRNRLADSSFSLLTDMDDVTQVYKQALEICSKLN
Description: as §1

[7] = target: 363 human kinases (including Aurora A/B/C) (Homo sapiens, UniProt Q86Z02); settings: HIPK1; for remaining activity at 0.1 µM: 100 nM; for remaining activity at 0.1 µM / remaining activity at 0.5 µM: read-out: % Enzyme Activity (relative to DMSO controls)
Description: as §1

[8] = target: 363 human kinases (including Aurora A/B/C) (Homo sapiens, UniProt P08069); settings: IGF1R; for remaining activity at 0.1 µM: 100 nM; for remaining activity at 0.1 µM / remaining activity at 0.5 µM: read-out: % Enzyme Activity (relative to DMSO controls)
Description: as §1

[9] = target: 363 human kinases (including Aurora A/B/C) (Homo sapiens, UniProt Q14012); settings: CAMK1a, [ATP] 20 µM; for remaining activity at 0.1 µM: 100 nM; for remaining activity at 0.1 µM / remaining activity at 0.5 µM: read-out: % Enzyme Activity (relative to DMSO controls)
Description: as §1

[10] = target: 363 human kinases (including Aurora A/B/C) (Homo sapiens, UniProt Q9UBS0); settings: p70S6Kb/RPS6KB2; for remaining activity at 0.1 µM: 100 nM; for remaining activity at 0.1 µM / remaining activity at 0.5 µM: read-out: % Enzyme Activity (relative to DMSO controls)
Description: as §1

[11] = target: T3, 363 human kinases (including Aurora A/B/C) (Homo sapiens, UniProt P15735); settings: PHKg2; for remaining activity at 0.1 µM: 100 nM; for remaining activity at 0.1 µM / remaining activity at 0.5 µM: read-out: % Enzyme Activity (relative to DMSO controls)
T3 sequence (P15735 1-406): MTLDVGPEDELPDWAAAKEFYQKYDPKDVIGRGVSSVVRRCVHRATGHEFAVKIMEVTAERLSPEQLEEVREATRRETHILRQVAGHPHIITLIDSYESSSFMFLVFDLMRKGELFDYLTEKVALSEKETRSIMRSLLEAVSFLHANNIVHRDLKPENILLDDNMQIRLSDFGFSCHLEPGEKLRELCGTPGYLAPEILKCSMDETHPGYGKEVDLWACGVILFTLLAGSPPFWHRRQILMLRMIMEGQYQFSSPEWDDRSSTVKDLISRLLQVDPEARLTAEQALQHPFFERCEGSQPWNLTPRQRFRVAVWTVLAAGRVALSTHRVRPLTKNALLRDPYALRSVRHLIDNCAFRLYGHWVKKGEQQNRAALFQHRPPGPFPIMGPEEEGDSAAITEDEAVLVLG
Description: as §1

Sequence of 363 human kinases (including Aurora A/B/C) (Homo sapiens, UniProt Q14012) (Q14012 whole entry): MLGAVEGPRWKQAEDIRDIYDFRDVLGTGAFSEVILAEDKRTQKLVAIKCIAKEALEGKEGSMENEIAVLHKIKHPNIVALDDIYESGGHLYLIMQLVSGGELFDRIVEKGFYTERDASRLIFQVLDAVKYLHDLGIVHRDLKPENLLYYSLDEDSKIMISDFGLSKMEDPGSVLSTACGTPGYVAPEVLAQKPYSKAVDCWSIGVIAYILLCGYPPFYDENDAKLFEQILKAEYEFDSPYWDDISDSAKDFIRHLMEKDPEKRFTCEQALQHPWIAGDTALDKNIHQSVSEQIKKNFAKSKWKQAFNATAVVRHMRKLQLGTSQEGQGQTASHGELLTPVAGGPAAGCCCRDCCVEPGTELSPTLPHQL
Sequence of 363 human kinases (including Aurora A/B/C) (Homo sapiens, UniProt Q9UBS0) (Q9UBS0 whole entry): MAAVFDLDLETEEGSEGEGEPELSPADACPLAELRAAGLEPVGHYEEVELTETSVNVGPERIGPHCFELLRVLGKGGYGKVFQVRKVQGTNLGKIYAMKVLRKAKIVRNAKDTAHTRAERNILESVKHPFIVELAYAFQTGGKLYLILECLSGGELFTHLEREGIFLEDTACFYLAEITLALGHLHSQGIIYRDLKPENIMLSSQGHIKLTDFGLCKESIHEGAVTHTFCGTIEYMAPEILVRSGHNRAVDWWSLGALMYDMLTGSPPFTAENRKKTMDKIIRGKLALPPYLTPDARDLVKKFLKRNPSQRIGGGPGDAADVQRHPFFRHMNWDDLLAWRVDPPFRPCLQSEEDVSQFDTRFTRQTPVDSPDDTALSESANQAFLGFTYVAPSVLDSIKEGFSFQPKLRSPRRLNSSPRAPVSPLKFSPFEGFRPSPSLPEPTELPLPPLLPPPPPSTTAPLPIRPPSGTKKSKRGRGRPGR
Sequence of 363 human kinases (including Aurora A/B/C) (Homo sapiens, UniProt P12931) (P12931 whole entry): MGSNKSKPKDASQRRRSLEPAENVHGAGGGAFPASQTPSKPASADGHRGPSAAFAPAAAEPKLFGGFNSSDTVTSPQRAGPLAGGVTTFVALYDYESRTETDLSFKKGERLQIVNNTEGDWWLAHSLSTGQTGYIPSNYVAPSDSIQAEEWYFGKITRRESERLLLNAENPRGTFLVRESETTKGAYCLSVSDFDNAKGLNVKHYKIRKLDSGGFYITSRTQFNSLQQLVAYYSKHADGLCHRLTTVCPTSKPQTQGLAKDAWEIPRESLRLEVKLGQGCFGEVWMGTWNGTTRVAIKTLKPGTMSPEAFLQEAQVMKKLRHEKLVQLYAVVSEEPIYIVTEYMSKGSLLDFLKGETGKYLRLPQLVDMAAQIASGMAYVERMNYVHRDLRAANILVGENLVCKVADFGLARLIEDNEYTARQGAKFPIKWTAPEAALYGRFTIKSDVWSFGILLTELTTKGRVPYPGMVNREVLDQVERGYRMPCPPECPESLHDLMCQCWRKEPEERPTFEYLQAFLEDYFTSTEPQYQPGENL
Sequence of 363 human kinases (including Aurora A/B/C) (Homo sapiens, UniProt Q86Z02) (Q86Z02 whole entry): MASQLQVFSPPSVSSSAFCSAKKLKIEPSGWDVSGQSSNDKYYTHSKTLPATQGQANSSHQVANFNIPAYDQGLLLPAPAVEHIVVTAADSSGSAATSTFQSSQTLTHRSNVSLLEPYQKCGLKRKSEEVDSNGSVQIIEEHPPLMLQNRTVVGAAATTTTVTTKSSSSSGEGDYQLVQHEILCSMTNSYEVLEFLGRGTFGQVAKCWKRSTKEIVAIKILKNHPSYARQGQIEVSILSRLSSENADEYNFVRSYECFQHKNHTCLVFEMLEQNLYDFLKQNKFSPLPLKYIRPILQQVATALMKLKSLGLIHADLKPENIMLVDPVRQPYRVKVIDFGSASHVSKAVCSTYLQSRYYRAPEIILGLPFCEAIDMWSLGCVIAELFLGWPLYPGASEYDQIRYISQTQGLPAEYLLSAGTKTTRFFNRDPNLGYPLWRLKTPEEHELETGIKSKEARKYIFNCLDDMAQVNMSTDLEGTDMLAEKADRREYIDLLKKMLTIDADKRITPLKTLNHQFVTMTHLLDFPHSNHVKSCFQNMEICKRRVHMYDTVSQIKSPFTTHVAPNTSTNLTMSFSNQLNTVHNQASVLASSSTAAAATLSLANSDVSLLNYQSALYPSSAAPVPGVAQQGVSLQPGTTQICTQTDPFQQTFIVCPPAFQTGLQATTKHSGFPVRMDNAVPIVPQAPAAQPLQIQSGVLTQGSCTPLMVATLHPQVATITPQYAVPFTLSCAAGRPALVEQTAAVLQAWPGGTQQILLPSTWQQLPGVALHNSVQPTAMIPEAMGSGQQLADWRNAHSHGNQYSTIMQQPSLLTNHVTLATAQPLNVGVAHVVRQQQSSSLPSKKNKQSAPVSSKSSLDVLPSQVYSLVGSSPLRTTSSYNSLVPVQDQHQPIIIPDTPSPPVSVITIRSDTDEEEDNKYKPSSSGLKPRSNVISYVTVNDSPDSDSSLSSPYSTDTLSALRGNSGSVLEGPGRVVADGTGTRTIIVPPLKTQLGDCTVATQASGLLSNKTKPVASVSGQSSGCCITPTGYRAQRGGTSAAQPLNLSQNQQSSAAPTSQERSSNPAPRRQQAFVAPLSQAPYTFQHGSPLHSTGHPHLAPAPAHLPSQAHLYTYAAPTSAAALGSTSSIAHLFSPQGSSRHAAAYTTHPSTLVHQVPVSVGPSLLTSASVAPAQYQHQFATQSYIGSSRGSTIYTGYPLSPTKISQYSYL
Sequence of 363 human kinases (including Aurora A/B/C) (Homo sapiens, UniProt Q9UIK4) (Q9UIK4 whole entry): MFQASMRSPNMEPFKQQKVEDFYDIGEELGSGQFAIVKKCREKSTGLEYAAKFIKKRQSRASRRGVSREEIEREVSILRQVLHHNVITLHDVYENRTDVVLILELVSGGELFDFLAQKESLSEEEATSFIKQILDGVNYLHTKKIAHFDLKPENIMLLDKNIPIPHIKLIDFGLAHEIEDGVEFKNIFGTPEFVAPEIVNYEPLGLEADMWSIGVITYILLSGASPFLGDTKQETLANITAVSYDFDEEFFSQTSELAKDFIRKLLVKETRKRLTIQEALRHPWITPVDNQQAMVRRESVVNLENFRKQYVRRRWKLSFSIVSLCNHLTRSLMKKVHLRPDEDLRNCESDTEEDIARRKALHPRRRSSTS
Sequence of 363 human kinases (including Aurora A/B/C) (Homo sapiens, UniProt Q9H2G2) (Q9H2G2 whole entry): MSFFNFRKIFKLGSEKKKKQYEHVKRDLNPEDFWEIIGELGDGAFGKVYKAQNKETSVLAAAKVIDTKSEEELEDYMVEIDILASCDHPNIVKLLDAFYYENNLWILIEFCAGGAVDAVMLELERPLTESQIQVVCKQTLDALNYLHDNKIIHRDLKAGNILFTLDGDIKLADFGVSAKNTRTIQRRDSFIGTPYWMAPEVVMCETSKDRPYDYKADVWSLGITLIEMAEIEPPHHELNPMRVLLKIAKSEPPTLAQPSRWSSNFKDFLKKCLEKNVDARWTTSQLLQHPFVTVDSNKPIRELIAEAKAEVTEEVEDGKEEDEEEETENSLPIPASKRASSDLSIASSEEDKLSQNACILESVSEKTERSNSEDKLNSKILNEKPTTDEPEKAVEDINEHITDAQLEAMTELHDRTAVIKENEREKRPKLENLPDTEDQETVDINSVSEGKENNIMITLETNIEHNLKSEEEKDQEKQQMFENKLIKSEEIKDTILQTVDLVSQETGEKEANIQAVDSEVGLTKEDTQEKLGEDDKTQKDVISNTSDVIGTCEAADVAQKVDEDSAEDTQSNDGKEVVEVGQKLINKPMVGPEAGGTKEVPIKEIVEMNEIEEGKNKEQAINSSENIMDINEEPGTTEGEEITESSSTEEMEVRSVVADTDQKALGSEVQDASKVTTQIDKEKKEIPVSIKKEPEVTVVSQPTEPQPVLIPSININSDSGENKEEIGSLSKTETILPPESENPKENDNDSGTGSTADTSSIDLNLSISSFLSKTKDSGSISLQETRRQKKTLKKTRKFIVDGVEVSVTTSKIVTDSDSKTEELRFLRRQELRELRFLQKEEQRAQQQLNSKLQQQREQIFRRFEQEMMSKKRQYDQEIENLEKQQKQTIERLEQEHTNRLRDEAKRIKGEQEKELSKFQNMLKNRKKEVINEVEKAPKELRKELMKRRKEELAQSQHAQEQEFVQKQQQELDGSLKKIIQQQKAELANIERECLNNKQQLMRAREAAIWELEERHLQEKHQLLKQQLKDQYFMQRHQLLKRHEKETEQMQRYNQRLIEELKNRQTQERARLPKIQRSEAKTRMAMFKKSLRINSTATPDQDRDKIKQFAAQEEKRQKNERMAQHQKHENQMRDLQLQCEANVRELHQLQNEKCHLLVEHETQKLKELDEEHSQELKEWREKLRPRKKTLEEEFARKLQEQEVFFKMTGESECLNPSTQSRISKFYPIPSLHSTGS
Sequence of 363 human kinases (including Aurora A/B/C) (Homo sapiens, UniProt P31749) (P31749 whole entry): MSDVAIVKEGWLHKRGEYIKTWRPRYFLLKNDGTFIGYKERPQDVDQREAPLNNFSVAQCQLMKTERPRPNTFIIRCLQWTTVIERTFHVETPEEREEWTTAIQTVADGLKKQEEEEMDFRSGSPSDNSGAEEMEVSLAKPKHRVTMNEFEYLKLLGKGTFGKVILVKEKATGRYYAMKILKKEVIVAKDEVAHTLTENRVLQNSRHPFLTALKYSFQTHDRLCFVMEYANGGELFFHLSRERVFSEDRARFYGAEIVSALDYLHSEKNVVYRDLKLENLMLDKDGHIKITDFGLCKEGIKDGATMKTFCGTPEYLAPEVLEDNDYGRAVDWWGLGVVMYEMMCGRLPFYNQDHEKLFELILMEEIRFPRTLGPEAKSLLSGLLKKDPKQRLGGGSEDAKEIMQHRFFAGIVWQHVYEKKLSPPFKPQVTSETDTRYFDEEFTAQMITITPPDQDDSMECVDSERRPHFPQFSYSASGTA

CCn1cc(-c2ccnc3[nH]c(-c4cccc(CN(C)C)c4)cc23)c(-c2ccc(NC(=O)N(C)C)cc2)n1 [GSK1070916]
remaining activity at 0.1 µM [1]: 102%
remaining activity at 0.1 µM [2]: 105%
remaining activity at 0.1 µM [3]: 111%
remaining activity at 0.1 µM [4]: 74.6%
remaining activity at 0.1 µM [5]: 95.2%
remaining activity at 0.1 µM [6]: 92.5%
remaining activity at 0.1 µM [7]: 99.2%
remaining activity at 0.1 µM [8]: 97.9%
remaining activity at 0.1 µM [9]: 98.6%
remaining activity at 0.1 µM [10]: 110%
remaining activity at 0.1 µM [11]: 95.3%

O=C(O)[C@]1(Cc2cccc(Nc3nccs3)n2)CC[C@@H](Oc2cccc(Cl)c2F)CC1 [MK-5108]
remaining activity at 0.1 µM [1]: 105%
remaining activity at 0.5 µM ([1]; 500 nM): 105%
remaining activity at 0.1 µM [2]: 116%
remaining activity at 0.5 µM ([2]; 500 nM): 102%
remaining activity at 0.1 µM [3]: 103%
remaining activity at 0.5 µM ([3]; 500 nM): 111%
remaining activity at 0.1 µM [4]: 39.2%
remaining activity at 0.5 µM ([4]; 500 nM): 12.5%
remaining activity at 0.1 µM [5]: 53.5%
remaining activity at 0.5 µM ([5]; 500 nM): 16.7%
remaining activity at 0.1 µM [6]: 79.6%
remaining activity at 0.5 µM ([6]; 500 nM): 42.7%
remaining activity at 0.1 µM [7]: 96.7%
remaining activity at 0.5 µM ([7]; 500 nM): 67.8%
remaining activity at 0.1 µM [8]: 81.1%
remaining activity at 0.5 µM ([8]; 500 nM): 43.9%
remaining activity at 0.1 µM [9]: 102%
remaining activity at 0.5 µM ([9]; 500 nM): 97.1%
remaining activity at 0.1 µM [10]: 100%
remaining activity at 0.5 µM ([10]; 500 nM): 99%
remaining activity at 0.1 µM [11]: 92.2%
remaining activity at 0.5 µM ([11]; 500 nM): 93.6%

O=C(c1cccc(Cl)c1F)N1CCN(Cc2cccc(Nc3nccs3)n2)CC1 [MK-8745]
% Enzyme Activity (relative to DMSO controls) ([1]; 500 nM): 98.06%
remaining activity at 0.5 µM ([1]; 500 nM): 100%
% Enzyme Activity (relative to DMSO controls) ([2]; 500 nM): 95.86%
remaining activity at 0.5 µM ([2]; 500 nM): 97.4%
% Enzyme Activity (relative to DMSO controls) ([3]; 500 nM): 102.56%
remaining activity at 0.5 µM ([3]; 500 nM): 105%
% Enzyme Activity (relative to DMSO controls) ([4]; 500 nM): 35.90%
remaining activity at 0.5 µM ([4]; 500 nM): 36.4%
% Enzyme Activity (relative to DMSO controls) ([5]; 500 nM): 77.19%
remaining activity at 0.5 µM ([5]; 500 nM): 77.7%
% Enzyme Activity (relative to DMSO controls) ([6]; 500 nM): 73.30%
remaining activity at 0.5 µM ([6]; 500 nM): 76.7%
% Enzyme Activity (relative to DMSO controls) ([7]; 500 nM): 90.76%
remaining activity at 0.5 µM ([7]; 500 nM): 90.8%
% Enzyme Activity (relative to DMSO controls) ([8]; 500 nM): 65.00%
remaining activity at 0.5 µM ([8]; 500 nM): 66.7%
% Enzyme Activity (relative to DMSO controls) ([9]; 500 nM): 94.06%
remaining activity at 0.5 µM ([9]; 500 nM): 95.5%
% Enzyme Activity (relative to DMSO controls) ([10]; 500 nM): 97.78%
remaining activity at 0.5 µM ([10]; 500 nM): 99.3%
% Enzyme Activity (relative to DMSO controls) ([11]; 500 nM): 94.03%
remaining activity at 0.5 µM ([11]; 500 nM): 94.7%
